The values that follow come from patent publication US20230123334A1, “AMINO LIPID COMPOUND, PREPARATION METHOD THEREFOR, AND APPLICATION THEREOF” (SHENZHEN SHENXIN BIOTECHNOLOGY CO., LTD., priority 2020, published 2023).

One series has as its system HEK293 cells. Nature of the series: Preliminary screening as DNA vectors, GFP transfection of HEK293 cells. Type of series: cell-based. The note with it: HEK293 cells; lipid/DOPE liposome with 75 ng plasmid DNA (psin-EGFP-IRES-Puro); number of cells expressing GFP divided by total number of nuclei (Hoechst). The gist of the method: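 First, amino lipid and DOPE were vortexed in sodium acetate buffer (pH 5.6) to form liposomes. Next, these were held with 75 ng EGFP plasmid at room temperature for 30 min. Finally, HEK293 cells were added, cultured at 37° C., Hoechst-stained, and GFP+/total nuclei scored by imaging.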
Consider `CCCCCCCCCCCCSc1nc(NCCCN2CCOCC2)nc(SCCCCCCCCCCC)n1` [Compound S11S12D8], for which the “Absolute DNA transfection efficiency in HEK293 cells” value was 10.7%.

Test system in the next series: not listed separately
Kind of series: Encapsulation rate of LNP RNA (Qubit RNA HS Assay kit). Type of series: physicochemical. The note with it: LNPs, Formulation Method 1. As to the method:
(§1) The amino lipid compound of the invention was mixed with DOPE, cholesterol and PEG2000-DMG in a molar ratio of 45:10:42.5:2.5, and dissolved in absolute ethanol such that the molar concentration of the amino lipid compound was 0.001-0.01 mmol/L. By using a microinjection pump, the resultant ethanol solution and a sodium acetate solution (50 mM, pH=4.0) in which luciferase mRNA (Fluc mRNA, TriLink) was dissolved were mixed in a volume ratio of 1:3 in a microchannel chip to prepare a crude solution of lipid nanoparticles, which was then dialyzed in 1×PBS at a controlled temperature of 4° C. for 6 h using a dialysis box (Fisher, MWCO 20,000) and filtered through a 0.22 μm microporous filter membrane before use. The mass ratio of the amino lipid compound to Fluc mRNA was about 10:1. The resultant solution of lipid nanoparticles (LNPs) was administered to the tested animals by subcutaneous administration.
Detection of encapsulation rate: the concentration of LNP RNA was detected by Qubit® RNA HS Assay kit. The theoretical RNA concentration was given by the total amount of RNA input divided by the total volume of the final solution.
(§2) The preparation method was the same as Formulation method 1, except that amino lipid compound, DSPC, cholesterol and PEG2000-DMG were used in a molar ratio of 50:10:38.5: 1.5. The resultant solution of lipid nanoparticles (LNPs) was administered to the tested animals by tail vein and intramuscular injection.
With `CCCCCCCCCCCCCCCCCCSc1nc(NCCN2CCCC2)nc(SCCCCCCC)n1` [Compound S7S18D3], the Encapsulation rate amounted to 99.5%.

Regarding `CCCCCCCCCCCCSc1nc(NCCCN2CCOCC2)nc(SCCCCCCCCCCC)n1` [Compound S11S12D8], the Encapsulation rate was found to be 98.3%.

The series is the same for the next values; noted with them: LNPs, Formulation method 2.
`CCCCCCCCCCCCCCCCCCSc1nc(NCCN2CCCC2)nc(SCCCCCCC)n1` [Compound S7S18D3] had an Encapsulation rate of 99.3%.

For the compound `CCCCCCCCCCCCSc1nc(NCCCN2CCOCC2)nc(SCCCCCCCCCCC)n1` [Compound S11S12D8], the Encapsulation rate is 98.9%.

The test system of a further series is HEK293 cells. Kind of series: Preliminary screening as mRNA vectors, EGFP mRNA transfection of HEK293 cells. The series is classed as cell-based. The note with it: HEK293 cells, 96-well plates, EGFP mRNA 50 ng per well; percentage of GFP fluorescent cells relative to total number of cells (Hoechst). The method, boiled down: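 Screening format: EGFP mRNA transfection (50 ng/well) into HEK293 in 10% FBS-supplemented DMEM. Percent green fluorescent cells, normalised to Hoechst nuclear count, gave the value; Lipofectamine2000 was the reference transfectant.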
Regarding `CCCCCCCCCCCCSc1nc(NCCCN2CCOCC2)nc(SCCCCCCCCCCC)n1` [Compound S11S12D8], the “Absolute mRNA transfection efficiency in HEK293 cells” value was 6.7%.

Test system in the next series: not listed separately
Kind of series: Particle size and PDI of lipid nanoparticles (Nano-ZSZEN3600, Malvern). The series is classed as physicochemical. The note with it: LNPs, Formulation Method 1. As for the experimental part: as §1
Characterization of particle size: the particle size and PDI of the prepared lipid nanoparticles were determined by Nano-ZSZEN3600 (Malvern). 40 uL of LNP solution was taken for particle size measurement with circulation for three times, 30 s for each circulation.
as §2
Compound `CCCCCCCCCCCCCCCCCCSc1nc(NCCN2CCCC2)nc(SCCCCCCC)n1` [Compound S7S18D3] registered a PDI of 0.10.

As for `CCCCCCCCCCCCSc1nc(NCCCN2CCOCC2)nc(SCCCCCCCCCCC)n1` [Compound S11S12D8], the PDI amounted to 0.02.

The same series, now with this note: LNPs, Formulation Method 1 (amino lipid:DOPE:cholesterol:PEG2000-DMG 45:10:42.5:2.5), Fluc mRNA.
With `CCCCCCCCCCCCCCCCCCSc1nc(NCCN2CCCC2)nc(SCCCCCCC)n1` [Compound S7S18D3], the “Particle size (nm)” value stood at 121 ± 5 nm.

`CCCCCCCCCCCCSc1nc(NCCCN2CCOCC2)nc(SCCCCCCCCCCC)n1` [Compound S11S12D8]: the “Particle size (nm)” value is given as 80 ± 5 nm.

The series is the same for the next values; noted with them: LNPs, Formulation method 2.
`CCCCCCCCCCCCCCCCCCSc1nc(NCCN2CCCC2)nc(SCCCCCCC)n1` [Compound S7S18D3] returned a PDI of 0.04.

Take `CCCCCCCCCCCCSc1nc(NCCCN2CCOCC2)nc(SCCCCCCCCCCC)n1` [Compound S11S12D8]: the PDI is 0.01.

Staying with this series, now noted: LNPs, Formulation method 2 (amino lipid:DSPC:cholesterol:PEG2000-DMG 50:10:38.5:1.5), Fluc mRNA.
Regarding `CCCCCCCCCCCCCCCCCCSc1nc(NCCN2CCCC2)nc(SCCCCCCC)n1` [Compound S7S18D3], the “Particle size (nm)” value is on record as 95 ± 5 nm.

Regarding `CCCCCCCCCCCCSc1nc(NCCCN2CCOCC2)nc(SCCCCCCCCCCC)n1` [Compound S11S12D8], the “Particle size (nm)” value stood at 90 ± 5 nm.

For the next series, the system named is BALB/c mice. Kind of series: In vivo delivery of ovalbumin mRNA (OVA mRNA) and immunity, IgG antibody titer by ELISA. The note with it: OVA mRNA LNPs 0.5 mg/kg Day 0 and Day 7, serum Day 21, versus DLin-MC3 control, FIG. 1. As for the experimental part: The amino lipid compound of the invention was mixed with DOPE, cholesterol and PEG2000-DMG in a molar ratio of 50:10:38.5:1.5 and dissolved in absolute ethanol such that the molar concentration of the amino lipid compound was 0.001-0.01 mmol/L. Ovalbumin mRNA (OVA mRNA, TriLink) was dissolved in sodium acetate solution (50 mM, pH=4.0). By using a microinjection pump, the resultant ethanol solution and sodium acetate solution (50 mM, pH=4.0) were mixed in a volume ratio of 1:3 in a microchannel chip to prepare a crude solution of lipid nanoparticles, which was then dialyzed in 1×PBS at a controlled temperature of 4° C. for 6 h using a dialysis box (Fisher, MWCO 20,000), and filtered through a 0.22 μm microporous filter membrane before use. The mass ratio of the amino lipid compound to ovalbumin mRNA (OVA mRNA) was about 10:1.
(§3) Animal Preparation: 6-week aged female BALB/c mice weighed about 20 g were selected and fed in a SPF-grade feeding room. Animal tests were conducted strictly according to the guidelines of national health institutions and the requirements of animal ethics.
In vivo delivery: 3 mice were assigned randomly to each group, and the lipid nanoparticle solution was intramuscularly injected into the leg at a dosage of 0.5 mg/kg mRNA (Day 0). After 7 days, one booster injection was performed at the same dosage (Day 7). On Day 21, blood was taken from the tail vein for serological analysis. DLin-MC3 was used as control (FIG. 1).
Enzyme-linked immunosorbent assay (ELISA): a flat-bottomed 96-well plate (Nunc) was pre-coated, with a concentration of OVA protein of 0.5 μg protein per well in 50 mM carbonate buffer (pH 9.6), and was allowed to stay overnight at 4° C. and then blocked with 5% glycine. Serum obtained from animals receiving the lipid nanoparticle solution containing the mRNA was diluted from 10^2 to 10^6 times with PBS-0.05% Tween (PBS-T) at pH 7.4, and added to the wells, incubated at room temperature and placed at 37° C. for 1 h. Horseradish peroxidase (HRP, Invitrogen) coupled goat anti-mouse IgG was used for labeling in PBS-T-1% BSA at a dilution rate of 1:10,000. After addition of the HRP substrate, the absorbance at 450 nm was measured in ELISA microplate reader (Bio-Rad).
Background: In an ELISA, binding on a coated surface is turned into a signal by an enzyme label.
With `CCCCCCCCCCCCCCCCCCSc1nc(NCCN2CCCC2)nc(SCCCCCCC)n1` [Compound S7S18D3], the IgG antibody titer result is on record as “significantly superior to that of the control”.

The next series has as its system BALB/c mice. Kind of series: In vivo delivery of luciferase mRNA (Fluc mRNA) by lipid nanoparticles, in vivo imaging. The note with it: intramuscular administration, 0.5 mg/kg Fluc mRNA, after 12 hours. As for the experimental part:
as §1, §2, §3
In vivo delivery: 9 mice were assigned randomly to each group, and the lipid nanoparticle solution was injected by three routes of administration, i.e., subcutaneous, intramuscular and tail vein injection at a dosage of 0.5 mg/kg Fluc mRNA (3 mice for each route of administration). After 12 hours, 200 μL of 10 mg/mL potassium salt of […] (PerkinElmer) was injected into each mouse through the tail vein. After 10 min, the mice were placed under an in vivo imaging system (IVIS-200, Xenogen) to observe the total fluorescence intensity of each mouse and take photographs for record. The expression intensity of Fluc mRNA delivered by representative amino lipid compounds through the three routes of administration are shown in Table 5-7. DLin-MC3 was used as control.
With `CCCCCCCCCCCCCCCCCCSc1nc(NCCN2CCCC2)nc(SCCCCCCC)n1` [Compound S7S18D3], the “Fluorescence intensity (expression intensity of Fluc mRNA)” value (from here on “Fluorescence intensity”) turned out to be 8.7E+07.

With `CCCCCCCCCCCCSc1nc(NCCCN2CCOCC2)nc(SCCCCCCCCCCC)n1` [Compound S11S12D8], the “Fluorescence intensity” value is 4.7E+06.

The same series, now with this note: subcutaneous administration, 0.5 mg/kg Fluc mRNA, after 12 hours.
For `CCCCCCCCCCCCCCCCCCSc1nc(NCCN2CCCC2)nc(SCCCCCCC)n1` [Compound S7S18D3], the “Fluorescence intensity” value stood at 2.9E+08.

For the compound `CCCCCCCCCCCCSc1nc(NCCCN2CCOCC2)nc(SCCCCCCCCCCC)n1` [Compound S11S12D8], the “Fluorescence intensity” value is 1.1E+07.

Still in this series, the particulars now being: tail vein administration, 0.5 mg/kg Fluc mRNA, after 12 hours.
Turning to `CCCCCCCCCCCCCCCCCCSc1nc(NCCN2CCCC2)nc(SCCCCCCC)n1` [Compound S7S18D3], the “Fluorescence intensity” value amounted to 8.1E+07.

With `CCCCCCCCCCCCSc1nc(NCCCN2CCOCC2)nc(SCCCCCCCCCCC)n1` [Compound S11S12D8], the “Fluorescence intensity” value came to 3.8E+06.
